According to patent US20080139654A1, “ACETAMINOPHEN COMPOSITIONS HAVING MINIMIZED SIDE EFFECTS INCLUDING REDUCED HEPATOTOXICITY” (priority 2006, published 2008):

Tests used:
[1] = person, 4 grams/day; cited from earlier work
[2] = rat, oral
Description: The effect of prophylactic administration of n-acetylcysteine (NAC) on acetaminophen hepatotoxicity can be determined in the rat. In a double-blind placebo study, four groups of rats are given one of the following oral dosings: “NAC-free” (NF), low NAC (LN), medium NAC (MN), or high NAC(HN). Then rats in all groups are administered a toxic dose of acetaminophen (1 g/kg body weight) orally. After 24 hours, animal are euthanized and assessed for hepatotoxicity by the elevation of serum transaminases and by a necrotic score based on histological examination.
In the following protocol, all rats in the study are given the LD50 dose of acetaminophen (determined by the dosage of acetaminophen that causes 50% of the test subjects to expire after a predetermined period of time). […] The study is conducted in double-blind fashion; four groups of rats are given one of the following oral dosings: “NAC-free” (NF or placebo), low NAC (LN), medium NAC (MN), or high NAC(HN). Then rats in all groups are administered a LD50 dose of acetaminophen. All animals are euthanized 3 weeks later and hepatotoxicity assessed by the elevation of serum transaminases and by a necrotic score based on histological examination. Mortality in all groups will also be followed as the added criterion.

[3] = Mucomyst monograph; cited from earlier work
[4] = male, human, in vivo
Description: A construction worker* fell from a height of about 8 feet, severely breaking their right ankle and wrist. (*to promote privacy and simplify description of the invention, the patient and symptoms described here are a composite of data from typical patients). Orthopedic surgery repaired the injury, followed by prolonged and painful rehabilitation. A prescription for 60 Vicodin tablets (a composition comprising acetaminophen and hydrocodone) is given routinely during such post-surgical recovery periods. Typcially, the first day 4 to 8 vicodin tablets manage pain (often in combination with sedatives and the aftereffects of surgical anesthetics).
On the second day, at least 8 Vicodin® tablets are generally required to get the same analgesic effect (Vicodin is a well known trademark, which will also be referred to herein by “vicodin”). Subsequently, it is common that more than 10 vicodin tablets per day are taken, contrary to the doctor's instructions, yet less pain relief is noted with this higher dosage. At this rate, the patient must seek a refill in only a week; often doctors refilling such prescriptions give a stern advisory about taking too many pills and the dangers of Tylenol/acetaminophen. Subsequently, the patient sought prescriptions from other physicians and took 30 Vicodin tablets each day. […]

[5] = rats, oral methionine 200 mg/kg/day for 14 days; cited from earlier work

| Structure (SMILES) | hepatotoxicity at recommended dose [1] | LD50 dose of acetaminophen [2] | large overdose that saturates glucuronide and sulfate conjugation pathways, leading to hepatic cellular necrosis [3] | destruction of liver [4] | angiotoxic effects [5] | concentrations of homocysteine in serum [5] |
| --- | --- | --- | --- | --- | --- | --- |
| CC(=O)Nc1ccc(O)cc1 [acetaminophen, N-acetyl-p-aminophenol] | severe hepatotoxicity | 0.5 g/kg of Body weight | ≥ 150 mg·kg | over 90% |  |  |
| CSCC[C@H](N)C(=O)O [methionine] |  |  |  |  | angiotoxic effects similar to atherosclerosis | increased |
